Laboratory results reported in patent US20260144788A1, “COMPOUND FOR SHP2 PROTEIN DEGRADATION AND MEDICAL USES THEREOF” (UBIX THERAPEUTICS, INC., priority 2022, published 2026).

Target: T1, SHP2 protein (Homo sapiens, UniProt Q06124)
T1 sequence (Q06124 1-593): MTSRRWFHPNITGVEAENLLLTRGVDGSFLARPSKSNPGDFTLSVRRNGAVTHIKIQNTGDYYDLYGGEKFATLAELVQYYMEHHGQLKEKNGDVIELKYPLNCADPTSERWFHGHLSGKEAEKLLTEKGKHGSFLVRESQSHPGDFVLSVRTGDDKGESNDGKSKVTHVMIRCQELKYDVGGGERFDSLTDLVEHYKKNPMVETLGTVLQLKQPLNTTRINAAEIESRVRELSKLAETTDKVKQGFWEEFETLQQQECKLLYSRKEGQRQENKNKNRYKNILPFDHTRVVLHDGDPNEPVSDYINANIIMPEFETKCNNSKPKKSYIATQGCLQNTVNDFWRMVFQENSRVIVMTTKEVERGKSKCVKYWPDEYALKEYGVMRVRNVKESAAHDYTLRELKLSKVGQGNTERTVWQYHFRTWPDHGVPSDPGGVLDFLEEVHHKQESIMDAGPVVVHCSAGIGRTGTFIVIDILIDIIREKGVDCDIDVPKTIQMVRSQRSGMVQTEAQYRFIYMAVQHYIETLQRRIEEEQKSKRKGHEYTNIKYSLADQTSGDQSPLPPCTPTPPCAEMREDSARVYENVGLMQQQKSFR
Experiment: Measurement of SHP2 protein degradation in MV-4-11 cells (western blotting)
Format: cell-based
Parameters: endogenous in cells
Conditions: harvested after 24 hours
Summary of the method: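 MV-4-11 cells in IMDM/5% FBS were exposed to compound at final 0.01, 0.1, 1 μM or 0.001, 0.01, 0.1 μM for 24 h, DMSO as negative control. BCA-normalised lysates were immunoblotted for SHP2 with GAPDH as loading control, read on LI-COR Odyssey.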

SMILES | SHP2% degradation (0.01 μM) | SHP2% degradation (0.1 μM)
Cc1ncsc1-c1ccc([C@H](C)NC(=O)[C@@H]2C[C@@H](O)CN2C(=O)[C@@H](NC(=O)C2(F)CC2)C(C)(C)C)c(OC2CCN(C(=O)C3CCN(c4nccc(Sc5cnc(N6CCC(C)(CN)CC6)cn5)c4Cl)CC3)CC2)c1 [Example 86, (2S,4R)—N—((S)-1-(2-((1-(1-(4-((5-(4-(aminomethyl)-4-methylpiperidin-1-yl)pyrazin-2-yl)thio)-3-chloropyridin-2-yl)piperidine-4-carbonyl)piperidin-4-yl)oxy)-4-(4-methylthiazol-5-yl)phenyl)ethyl)-1-((S)-2-(1-fluorocyclopropane-1-carboxamido)-3,3-dimethylbutanoyl)-4-hydroxypyrrolidine-2-carboxamide] | 81.9% | 99.9%
CC(=O)N[C@H](C(=O)N1C[C@H](O)C[C@H]1C(=O)N[C@@H](C)c1ccc(-c2scnc2C)cc1OC1CCN(C(=O)C2CCN(c3nccc(Sc4cnc(N5CCC(C)(CN)CC5)cn4)c3Cl)CC2)CC1)C(C)(C)C [Example 87, (2S,4R)-1-((S)-2-acetamido-3,3-dimethylbutanoyl)-N—((S)-1-(2-((1-(1-(4-((5-(4-(aminomethyl)-4-methylpiperidin-1-yl)pyrazin-2-yl)thio)-3-chloropyridin-2-yl)piperidine-4-carbonyl)piperidin-4-yl)oxy)-4-(4-methylthiazol-5-yl)phenyl)ethyl)-4-hydroxypyrrolidine-2-carboxamide] | 95.8% | 100.0%
